Data from patent US20150166523A1, “BRANCHED CHAIN ALKYL HETEROAROMATIC RING DERIVATIVE” (TAISHO PHARMACEUTICAL CO., LTD., priority 2012, published 2015).

Legend:
[1] = target: T1, human orexin-1 receptor (hOX1R) (Homo sapiens, UniProt O43613); experiment: Measurement of orexin antagonistic activity (intracellular Ca2+ fluorescence, FDSS) on hOX1R; format: cell-based; settings: CHO cells forcibly expressing hOX1R; Fluo-4AM; ligand peptide (substituted human orexin-A) 300 pM; compound preincubated 30 minutes; read-out: IC50 Value OX1
T1 construct: expressed in transfected cells; host or cells: Chinese hamster ovary (CHO) cells
T1 sequence (O43613 1-425): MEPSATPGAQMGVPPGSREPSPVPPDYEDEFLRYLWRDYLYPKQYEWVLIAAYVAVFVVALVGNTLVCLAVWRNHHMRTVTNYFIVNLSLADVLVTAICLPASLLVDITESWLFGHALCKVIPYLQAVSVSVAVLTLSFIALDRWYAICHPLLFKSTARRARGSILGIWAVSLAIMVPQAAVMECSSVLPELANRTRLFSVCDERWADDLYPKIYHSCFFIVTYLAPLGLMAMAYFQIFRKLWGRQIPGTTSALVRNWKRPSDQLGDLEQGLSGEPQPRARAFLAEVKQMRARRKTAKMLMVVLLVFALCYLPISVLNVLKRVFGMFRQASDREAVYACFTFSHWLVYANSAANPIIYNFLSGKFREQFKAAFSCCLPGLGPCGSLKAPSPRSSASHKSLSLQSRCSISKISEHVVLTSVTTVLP
Procedure, shortened: (§1)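 CHO cells stably expressing hOX1R or hOX2R, loaded with 0.5 μM Fluo-4AM in HEPES/HBSS buffer with 0.1% BSA and 2.5 mM probenecid, pH 7.4, then preincubated 30 min with compound. Fluorescence recorded each second for 3 min by FDSS; maximum intensity taken as intracellular Ca2+ indicator of antagonism.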

[2] = target: T2, orexin-2 receptor (hOX2R) (Homo sapiens, UniProt O43614); experiment: Measurement of orexin antagonistic activity (intracellular Ca2+ fluorescence, FDSS) on hOX2R; format: cell-based; settings: CHO cells forcibly expressing hOX2R; Fluo-4AM; ligand peptide (substituted human orexin-A) 3 nM; compound preincubated 30 minutes; read-out: IC50 Value OX2
T2 construct: expressed in transfected cells; host or cells: Chinese hamster ovary (CHO) cells
T2 sequence (O43614 1-444): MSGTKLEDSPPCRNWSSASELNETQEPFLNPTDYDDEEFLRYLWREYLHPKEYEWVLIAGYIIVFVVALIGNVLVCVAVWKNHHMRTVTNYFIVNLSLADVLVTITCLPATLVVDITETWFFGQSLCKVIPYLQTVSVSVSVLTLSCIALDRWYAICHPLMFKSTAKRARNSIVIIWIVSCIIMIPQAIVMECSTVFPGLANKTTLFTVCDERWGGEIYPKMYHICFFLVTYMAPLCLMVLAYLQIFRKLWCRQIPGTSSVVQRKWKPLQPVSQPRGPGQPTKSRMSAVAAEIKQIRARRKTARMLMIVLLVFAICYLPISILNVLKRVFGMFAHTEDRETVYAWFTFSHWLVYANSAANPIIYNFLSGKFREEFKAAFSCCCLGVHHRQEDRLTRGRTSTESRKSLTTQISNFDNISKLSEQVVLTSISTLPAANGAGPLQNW
Procedure, shortened: as §1

SMILES	IC50 [1] [nM]	IC50 [2] [nM]
CCN(C(=O)c1cc(C)ccc1-n1nccn1)C(C)Cc1cnn(-c2ccc(F)cn2)c1 (stereo not drawn) [Example 74, N-Ethyl-N-{1-[1-(5-fluoropyridin-2-yl)-1H-pyrazol-4-yl]propan-2-yl}-5-methyl-2-(2H-1,2,3-triazol-2-yl)benzamide]	1.3	13.1
CCN(C(=O)c1nc(C)ccc1-n1nccn1)[C@@H](C)Cn1nnc(-c2ccc(F)cn2)n1 [Example 86, N-Ethyl-N-{(2S)-1-[5-(5-fluoropyridin-2-yl)-2H-tetrazol-2-yl]propan-2-yl}-6-methyl-3-(2H-1,2,3-triazol-2-yl)pyridine-2-carboxamide]	37.7	1030
CCN(C(=O)c1cc(C)ccc1-n1nccn1)[C@@H](C)Cn1cc(-c2ccc(F)cn2)nn1 [Example 82, N-Ethyl-N-{(2S)-1-[4-(5-fluoropyridin-2-yl)-1H-1,2,3-triazol-1-yl]propan-2-yl}-5-methyl-2-(2H-1,2,3-triazol-2-yl)benzamide]	2.2	13.3
CCN(C(=O)c1cc(C)ccc1-c1ncccn1)[C@@H](C)Cn1nnc(-c2ccc(F)cc2)n1 [Example 68, N-Ethyl-N-{(2S)-1-[5-(4-fluorophenyl)-2H-tetrazol-2-yl]propan-2-yl}-5-methyl-2-(pyrimidin-2-yl)benzamide]	0.8	33.7
Cc1ccc(-n2nccn2)c(C(=O)N(CCO)[C@@H](C)Cn2cc(-c3ccc(F)cc3)nn2)c1 [Example 73, N-{(2S)-1-[4-(4-Fluorophenyl)-1H-1,2,3-triazol-1-yl]propan-2-yl}-N-(2-hydroxyethyl)-5-methyl-2-(2H-1,2,3-triazol-2-yl)benzamide]	80.3	5.7
Cc1ccc(-n2nccn2)c(C(=O)N(CCC#N)[C@@H](C)Cn2cc(-c3ccc(F)cc3)nn2)c1 [Example 91, N-(2-Cyanoethyl)-N-{(2S)-1-[4-(4-fluorophenyl)-1H-1,2,3-triazol-1-yl]propan-2-yl}-5-methyl-2-(2H-1,2,3-triazol-2-yl) benzamide]	203	279
Cc1ccc(-n2nccn2)c(C(=O)N(CC(C)O)[C@@H](C)Cn2cc(-c3ccc(F)cc3)cn2)c1 (stereo partly drawn) [Example 102, N-{(2S)-1-[4-(4-Fluorophenyl)-1H-pyrazol-1-yl]propan-2-yl}-N-(2-hydroxypropyl)-5-methyl-2-(2H-1,2,3-triazol-2-yl)benzamide]	1.4	27.9
CCN(C(=O)c1cc(C)ccc1-c1ncccn1)[C@@H](C)Cn1cc(-c2ccc(F)cn2)cn1 [Example 35, N-Ethyl-N-{(2S)-1-[4-(5-fluoropyridin-2-yl)-1H-pyrazol-1-yl]propan-2-yl}-5-methyl-2-(pyrimidin-2-yl)benzamide]	3.4	62.8
Cc1ccc(-n2nccn2)c(C(=O)N(C)[C@H](Cn2ccc(-c3ccc(F)cn3)n2)C(C)C)c1 [Example 23, N-{(2S)-1-[3-(5-Fluoropyridin-2-yl)-1H-pyrazol-1-yl]-3-methylbutan-2-yl}-N,5-dimethyl-2-(2H-1,2,3-triazol-2-yl) benzamide]	134	1890
CCN(C(=O)c1cc(C)ccc1-n1nccn1)[C@@H](C)Cn1nnc(-c2ccc(F)cc2)n1 [Example 62, N-Ethyl-N-{(2S)-1-[5-(4-fluorophenyl)-2H-tetrazol-2-yl]propan-2-yl}-5-methyl-2-(2H-1,2,3-triazol-2-yl)benzamide]	0.7	2.3
COCCN(C(=O)c1cc(C)ccc1-n1nccn1)[C@@H](C)Cn1cc(-c2ccc(F)cc2)nn1 [Example 72, N-{(2S)-1-[4-(4-Fluorophenyl)-1H-1,2,3-triazol-1-yl]propan-2-yl}-N-(2-methoxyethyl)-5-methyl-2-(2H-1,2,3-triazol-2-yl)benzamide]	102	401
Cc1ccc(-n2nccn2)c(C(=O)N(CCO)[C@@H](C)Cn2nnc(-c3ccc(F)cc3)n2)c1 [Example 64, N-{(2S)-1-[5-(4-Fluorophenyl)-2H-tetrazol-2-yl]propan-2-yl}-N-(2-hydroxyethyl)-5-methyl-2-(2H-1,2,3-triazol-2-yl)benzamide]	1	47.9
CCN(C(=O)c1cc(F)ccc1-c1ncccn1)[C@@H](C)Cn1cc(-c2ccc(F)cn2)nn1 [Example 81, N-Ethyl-5-fluoro-N-{(2S)-1-[4-(5-fluoropyridin-2-yl)-1H-1,2,3-triazol-1-yl]propan-2-yl}-2-(pyrimidin-2-yl) benzamide]	177	3150
Cc1ccc(-n2nccn2)c(C(=O)N(C)[C@@H](C)Cn2cc(-c3ccc(F)c(F)c3)cn2)n1 [Example 29, N-{(2S)-1-[4-(3,4-Difluorophenyl)-1H-pyrazol-1-yl]propan-2-yl}-N,6-dimethyl-3-(2H-1,2,3-triazol-2-yl)pyridine-2-carboxamide]	10.1	25.6
CCN(C(=O)c1ccccc1-n1nccn1)[C@@H](C)Cn1ccc(-c2ccc(F)cn2)n1 [Example 18, N-Ethyl-N-{(2S)-1-[3-(5-fluoropyridin-2-yl)-1H-pyrazol-1-yl]propan-2-yl}-2-(2H-1,2,3-triazol-2-yl)benzamide]	0.7	7.7
CCN(C(=O)c1cc(F)ccc1-c1ncccn1)[C@@H](C)Cn1cc(-c2ccc(F)cc2)cn1 [Example 30, N-Ethyl-5-fluoro-N-{(2S)-1-[4-(4-fluorophenyl)-1H-pyrazol-1-yl]propan-2-yl}-2-(pyrimidin-2-yl)benzamide]	1.2	35.7
Cc1ccc(-n2nccn2)c(C(=O)N(C)[C@@H](C)Cn2ccc(-c3ccc(F)cn3)n2)c1 [Example 19, N-{(2S)-1-[3-(5-Fluoropyridin-2-yl)-1H-pyrazol-1-yl]propan-2-yl}-N,5-dimethyl-2-(2H-1,2,3-triazol-2-yl) benzamide]	1.1	5.8
C[C@@H](Cn1cc(-c2ccc(F)cc2)cn1)N(C)C(=O)c1cc(F)ccc1-c1ncccn1 [Example 32, 5-Fluoro-N-{(2S)-1-[4-(4-fluorophenyl)-1H-pyrazol-1-yl]propan-2-yl}-N-methyl-2-(pyrimidin-2-yl)benzamide]	20.7	96.9
CCN(C(=O)c1cc(C)ccc1-n1nccn1)[C@@H](C)Cn1cc(-c2ccc(F)cn2)cn1 [Example 25, N-Ethyl-N-{(2S)-1-[4-(5-fluoropyridin-2-yl)-1H-pyrazol-1-yl]propan-2-yl}5-methyl-2-(2H-1,2,3-triazol-2-yl) benzamide]	0.7	6.4
CCN(C(=O)c1cc(C)ccc1-n1nccn1)[C@@H](C)Cn1cc(-c2cccc(OC)c2)nn1 [Example 101, N-Ethyl-N-{(2S)-1-[4-(3-methoxyphenyl)-1H-1,2,3-triazol-1-yl]propan-2-yl}-5-methyl-2-(2H-1,2,3-triazol-2-yl)benzamide]	0.9	1.5
CCN(C(=O)c1nc(C)ccc1-n1nccn1)[C@@H](C)Cn1ccc(-c2ccc(F)cc2)n1 [Example 3, N-Ethyl-N-[(2S)-1-[3-(4-fluorophenyl)-1H-pyrazol-1-yl]propan-2-yl]-6-methyl-3-(2H-1,2,3-triazol-2-yl) pyridine-2-carboxamide]	1	4.5
CCN(C(=O)c1nc(C)ccc1-n1nccn1)[C@@H](C)Cn1ccc(-c2ccc(F)c(F)c2)n1 [Example 16, N-[(2S)-1-[3-(3,4-Difiuorophenyl)-1H-pyrazol-1-yl]propan-2-yl]-N-ethyl-6-methyl-3-(2H-1,2,3-triazol-2-yl)pyridine-2-carboxamide]	1.8	9.7
CCN(C(=O)c1cc(C)ccc1-n1nccn1)[C@@H](C)Cc1noc(-c2ccc(F)cn2)n1 [Example 47, N-Ethyl-N-{(2S)-1-[5-(5-fluoropyridin-2-yl)-1,2,4-oxadiazol-3-yl]propan-2-yl}-5-methyl-2-(2H-1,2,3-triazol-2-yl) benzamide]	0.8	9.5
Cc1ccc(-n2nccn2)c(C(=O)N(CCO)[C@@H](C)Cn2ccc(-c3ccc(F)cc3)n2)c1 [Example 42, N-{(2S)-1-[3-(4-Fluorophenyl)-1H-pyrazol-1-yl]propan-2-yl}-N-(2-hydroxyethyl)-5-methyl-2-(2H-1,2,3-triazol-2-yl)benzamide]	1.1	21.8
